This is an account of results in patent US6987114B1, “Antiviral pyrimidinedione derivatives and process for the preparation thereof” (Samjin Pharmaceutical Co., Ltd, priority 1999, dated 2006).

≈ marks a conversion by molar mass, not a printed value. Like-named read-outs stand apart in the source and are kept apart here.

One series deals with HIV. Nature of the series: microbe, parasite or virus in culture. Format: cell-based. In a few lines:
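MT-4 cells (2.5×10^5 cells/ml) infected with 1000 CCID50 HIV, added at once to compound dilutions, incubated 4 or 5 days at 37° C. Protection from virus-induced cytopathic effect read by MTT; cytotoxicity from MTT viability of mock-infected cells in parallel.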

The next series deals with mock-infected MT-4 cells. In words: Cytotoxicity based on viability of mock-infected host cells (MTT method). Format: cell-based. The note with it: mock-infected MT-4 cells, MTT method, 4 or 5 days at 37° C. In a few lines: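 Mock-infected MT-4 cells at 2.5×10^5 cells/ml were exposed to various concentrations of test compound, run in parallel with HIV-infected (1000 CCID50) cultures. After 4 or 5 days at 37° C., host-cell viability was read by MTT.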

[1] abbreviates: Human immunodeficiency virus 1, MT4, HIV-infected MT-4 cells, MTT method, 4 or 5 days at 37° C., read-out: ED50 (the source's name).
[2] abbreviates: Human immunodeficiency virus 1, MT4, read-out: ED50.

In general, melting point refers to the temperature, or range, at which the solid turns liquid.

As to `CCc1c(Sc2cc(C)cc(C)c2)n(Cc2ccccn2)c(=O)[nH]c1=O` [Example 109, 1-(Pyridin-2-ylmethyl)-5-ethyl-6-(3,5-dimethylphenyl)thio-2,4-pyrimidinedione], the melting point lay in the range of 217 to 219 °C. The EC50 in the series with HIV (setting [1]) was found to be 0.015 µg/mL (≈ 0.0408 µM). Besides, the CD50 in the series with mock-infected MT-4 cells was determined as 29.72 µg/mL.

`Cc1cc(C)cc(Sc2c(C(C)C)c(=O)[nH]c(=O)n2Cc2ccccn2)c1` [Example 110, 1-(Pyridin-2-ylmethyl)-5-isopropyl-6-(3,5-dimethylphenyl)thio-2,4-pyrimidinedione] showed a melting point of 194 to 196 °C. The EC50 with HIV (setting [1]) stood at 0.009 µg/mL (≈ 0.0236 µM). The same compound had a CD50 in the series with mock-infected MT-4 cells of 9.61 µg/mL.

In turn, `CCc1c(Oc2cc(C)cc(C)c2)n(Cc2ccccn2)c(=O)[nH]c1=O` [Example 111, 1-(Pyridin-2-ylmethyl)-5-ethyl-6-(3,5-dimethylphenoxy)-2,4-pyrimidinedione] had a melting point of 215 to 217 °C. Moreover, the EC50 with HIV (setting [1]) was determined as 0.081 µg/mL (≈ 0.231 µM). The CD50 in the series on mock-infected MT-4 cells was more than 100.00 µg/mL.

The compound `Cc1cc(C)cc(Oc2c(C(C)C)c(=O)[nH]c(=O)n2Cc2ccccn2)c1` [Example 112, 1-(Pyridin-2-ylmethyl)-5-isopropyl-6-(3,5-dimethylphenoxy)-2,4-pyrimidinedione] yielded a melting point of 220 to 223 °C. Moreover, the EC50 in the series on HIV (setting [1]) was 0.029 µg/mL (≈ 0.0794 µM). This compound returned a CD50 in the series with mock-infected MT-4 cells of more than 100.00 µg/mL.

In turn, `CCc1c(C(=O)c2cc(C)cc(C)c2)n(Cc2ccccn2)c(=O)[nH]c1=O` [Example 113, 1-(Pyridin-2-ylmethyl)-5-ethyl-6-(3,5-dimethylbenzoyl)-2,4-pyrimidinedione] showed a melting point of 153 to 155 °C. Besides, in the series with HIV (setting [1]), the EC50 turned out to be 0.0084 µg/mL (≈ 0.0231 µM). Besides, the CD50 in the series with mock-infected MT-4 cells stood at 32.80 µg/mL.

The compound `CCc1c(Sc2cc(C)cc(C)c2)n(Cc2cccnc2)c(=O)[nH]c1=O` [Example 115, 1-(Pyridin-3-ylmethyl)-5-ethyl-6-(3,5-dimethylphenyl)thio-2,4-pyrimidinedione] returned a melting point of 202 to 205 °C. Moreover, in the series with HIV (setting [2]), the EC50 was found to be 0.014 µg/mL (≈ 0.0381 µM). In the series on mock-infected MT-4 cells, this compound showed a CD50 of 16.63 µg/mL.

The compound `Cc1cc(C)cc(Sc2c(C(C)C)c(=O)[nH]c(=O)n2Cc2cccnc2)c1` [Example 116, 1-(Pyridin-3-ylmethyl)-5-isopropyl-6-(3,5-dimethylphenyl)thio-2,4-pyrimidinedione] yielded a melting point of 159 to 161 °C. In addition, in the series on HIV (setting [2]), the EC50 was 0.003 µg/mL (≈ 0.00786 µM). In the series with mock-infected MT-4 cells, this compound yielded a CD50 of 10.09 µg/mL.

Compound `CCc1c(Oc2cc(C)cc(C)c2)n(Cc2cccnc2)c(=O)[nH]c1=O` [Example 117, 1-(Pyridin-3-ylmethyl)-5-ethyl-6-(3,5-dimethylphenoxy)-2,4-pyrimidinedione] gave a melting point of 230 to 232 °C. In addition, the EC50 in the series with HIV (setting [2]) amounted to 0.061 µg/mL (≈ 0.174 µM). For the same compound, the CD50 in the series with mock-infected MT-4 cells worked out at 40.20 µg/mL.

The compound `Cc1cc(C)cc(Oc2c(C(C)C)c(=O)[nH]c(=O)n2Cc2cccnc2)c1` [Example 118, 1-(Pyridin-3-ylmethyl)-5-isopropyl-6-(3,5-dimethylphenoxy)-2,4-pyrimidinedione] yielded a melting point of 190 to 193 °C. The EC50 in the series with HIV (setting [2]) came out at 0.015 µg/mL (≈ 0.041 µM). In addition, the CD50 in the series on mock-infected MT-4 cells is 33.50 µg/mL.

As for `CCc1c(C(=O)c2cc(C)cc(C)c2)n(Cc2cccnc2)c(=O)[nH]c1=O` [Example 119, 1-(Pyridin-3-ylmethyl)-5-ethyl-6-(3,5-dimethylbenzoyl)-2,4-pyrimidinedione], the melting point fell in the range of 170 to 172 °C. Moreover, in the series on HIV (setting [2]), the EC50 is 0.0038 µg/mL (≈ 0.0105 µM). In the series on mock-infected MT-4 cells, the CD50 was found to be 39.00 µg/mL.

In the case of `Cc1cc(C)cc(C(=O)c2c(C(C)C)c(=O)[nH]c(=O)n2Cc2cccnc2)c1` [Example 120, 1-(Pyridin-3-ylmethyl)-5-isopropyl-6-(3,5-dimethylbenzoyl)-2,4-pyrimidinedione], the melting point was in the range of 178 to 180 °C. Also, in the series with HIV (setting [2]), the EC50 came to 0.002 µg/mL (≈ 0.0053 µM). In the series with mock-infected MT-4 cells, this compound had a CD50 of 8.80 µg/mL.

Take `CCc1c(Sc2cc(C)cc(C)c2)n(Cc2cccc(Cl)n2)c(=O)[nH]c1=O` [Example 121, 1-(2-Chloropyridin-6-ylmethyl)-5-ethyl-6-(3,5-dimethyl-phenyl)thio-2,4-pyrimidinedione]: the melting point fell in the range of 145 to 148 °C. In addition, the EC50 with HIV (setting [1]) is more than 7.72 µg/mL. In the series on mock-infected MT-4 cells, this compound gave a CD50 of 7.72 µg/mL.

For the compound `Cc1cc(C)cc(Sc2c(C(C)C)c(=O)[nH]c(=O)n2Cc2cccc(Cl)n2)c1` [Example 122, 1-(2-Chloropyridin-6-ylmethyl)-5-isopropyl-6-(3,5-dimethylphenyl)thio-2,4-pyrimidinedione], the melting point lay within 159 to 161 °C. In addition, the EC50 with HIV (setting [1]) is more than 2.8 µg/mL. For the same compound, the CD50 with mock-infected MT-4 cells was found to be 2.80 µg/mL.

In turn, `CCc1c(Oc2cc(C)cc(C)c2)n(Cc2cccc(Cl)n2)c(=O)[nH]c1=O` [Example 123, 1-(2-Chloropyridin-6-ylmethyl)-5-ethyl-6-(3,5-dimethylphenoxy)-2,4-pyrimidinedione] returned a melting point of 199 to 201 °C. Moreover, in the series on HIV (setting [1]), the EC50 worked out at 0.122 µg/mL (≈ 0.316 µM). In the series with mock-infected MT-4 cells, this compound returned a CD50 of 79.14 µg/mL.

Regarding `Cc1cc(C)cc(Oc2c(C(C)C)c(=O)[nH]c(=O)n2Cc2cccc(Cl)n2)c1` [Example 124, 1-(2-Chloropyridin-6-ylmethyl)-5-isopropyl-6-(3,5-dimethylphenoxy)-2,4-pyrimidinedione], the melting point lay in the range of 223 to 225 °C. The EC50 in the series on HIV (setting [1]) stood at 0.082 µg/mL (≈ 0.205 µM). The CD50 with mock-infected MT-4 cells is more than 100.00 µg/mL.

`CCc1c(C(=O)c2cc(C)cc(C)c2)n(Cc2cccc(Cl)n2)c(=O)[nH]c1=O` [Example 125, 1-(2-Chloropyridin-6-ylmethyl)-5-ethyl-6-(3,5-dimethyl-benzoyl)-2,4-pyrimidinedione] came in with a melting point of 196 to 198 °C. For the same compound, the EC50 in the series on HIV (setting [1]) worked out at 0.015 µg/mL (≈ 0.0377 µM). For the same compound, the CD50 in the series on mock-infected MT-4 cells stood at 9.02 µg/mL.

`Cc1cc(C)cc(C(=O)c2c(C(C)C)c(=O)[nH]c(=O)n2Cc2cccc(Cl)n2)c1` [Example 126, 1-(2-Chloropyridin-6-ylmethyl)-5-isopropyl-6-(3,5-dimethylbenzoyl)-2,4-pyrimidinedione] came in with a melting point of 206 to 208 °C. In addition, the EC50 in the series on HIV (setting [1]) is 0.011 µg/mL (≈ 0.0267 µM). Also, the CD50 in the series with mock-infected MT-4 cells was 9.85 µg/mL.

In the case of `CCc1c(Oc2cc(C)cc(C)c2)n(Cc2cccc(Br)n2)c(=O)[nH]c1=O` [Example 127, 1-(2-Bromopyridin-6-ylmethyl)-5-ethyl-6-(3,5-dimethylphenoxy)-2,4-pyrimidinedione], the melting point lay within 201 to 203 °C. Further, the EC50 in the series with HIV (setting [1]) came out at 0.194 µg/mL (≈ 0.451 µM). This compound showed a CD50 with mock-infected MT-4 cells of 9.46 µg/mL.

The compound `Cc1cc(C)cc(Oc2c(C(C)C)c(=O)[nH]c(=O)n2Cc2cccc(Br)n2)c1` [Example 128, 1-(2-Bromopyridin-6-ylmethyl)-5-isopropyl-6-(3,5-dimethylphenoxy)-2,4-pyrimidinedione] yielded a melting point of 228 to 230 °C. In the series with HIV (setting [1]), the EC50 came to 0.079 µg/mL (≈ 0.178 µM). Further, in the series with mock-infected MT-4 cells, the CD50 is 48.27 µg/mL.

Regarding `Cc1cc(C)cc(C(=O)c2c(C(C)C)c(=O)[nH]c(=O)n2Cc2cccc(Br)n2)c1` [Example 130, 1-(2-Bromopyridin-6-ylmethyl)-5-isopropyl-6-(3,5-dimethyl-benzoyl)-2,4-pyrimidinedione], the melting point lay in the range of 218 to 220 °C. For the same compound, the EC50 in the series with HIV (setting [1]) came to 0.015 µg/mL (≈ 0.0329 µM). Further, the CD50 in the series with mock-infected MT-4 cells turned out to be 8.85 µg/mL.

Regarding `CCc1c(Sc2cc(C)cc(C)c2)n(Cc2ccc3ccccc3n2)c(=O)[nH]c1=O` [Example 131, 1-(Quinolin-2-ylmethyl)-5-ethyl-6-(3,5-dimethylphenyl)-thio-2,4-pyrimidinedione], the melting point lay in the range of 107 to 110 °C. The EC50 in the series on HIV (setting [1]) is more than 10.6 µg/mL. In the series with mock-infected MT-4 cells, the CD50 is 10.60 µg/mL.

On to `Cc1cc(C)cc(Sc2c(C(C)C)c(=O)[nH]c(=O)n2Cc2ccc3ccccc3n2)c1` [Example 132, 1-(Quinolin-2-ylmethyl)-5-isopropyl-6-(3,5-dimethylphenyl)thio-2,4-pyrimidinedione], for which the melting point fell in the range of 181 to 183 °C. Moreover, the EC50 in the series with HIV (setting [1]) was more than 9.58 µg/mL. Besides, in the series with mock-infected MT-4 cells, the CD50 is 9.60 µg/mL.

In the case of `CCc1c(Oc2cc(C)cc(C)c2)n(Cc2ccc3ccccc3n2)c(=O)[nH]c1=O` [Example 133, 1-(Quinolin-2-ylmethyl)-5-ethyl-6-(3,5-dimethyl-phenoxy)-2,4-pyrimidinedione], the melting point lay in the range of 220 to 222 °C. Further, the EC50 in the series on HIV (setting [1]) was 0.06 µg/mL (≈ 0.149 µM). Moreover, the CD50 in the series on mock-infected MT-4 cells worked out at 11.70 µg/mL.

As for `Cc1cc(C)cc(Oc2c(C(C)C)c(=O)[nH]c(=O)n2Cc2ccc3ccccc3n2)c1` [Example 134, 1-(Quinolin-2-ylmethyl)-5-isopropyl-6-(3,5-dimethyl-phenoxy)-2,4-pyrimidinedione], the melting point was 246 to 248 °C. The EC50 with HIV (setting [1]) was 0.004 µg/mL (≈ 0.00963 µM). The CD50 in the series on mock-infected MT-4 cells amounted to 66.80 µg/mL.

`CCc1c(C(=O)c2cc(C)cc(C)c2)n(Cc2ccc3ccccc3n2)c(=O)[nH]c1=O` [Example 135, 1-(Quinolin-2-ylmethyl)-5-ethyl-6-(3,5-dimethylbenzoyl)-2,4-pyrimidinedione]: the melting point fell in the range of 218 to 220 °C. Moreover, the EC50 in the series on HIV (setting [1]) was found to be 0.0089 µg/mL (≈ 0.0215 µM). Further, in the series with mock-infected MT-4 cells, the CD50 is 6.80 µg/mL.

Take `Cc1cc(C)cc(C(=O)c2c(C(C)C)c(=O)[nH]c(=O)n2Cc2ccc3ccccc3n2)c1` [Example 136, 1-(Quinolin-2-ylmethyl)-5-isopropyl-6-(3,5-dimethyl-benzoyl)-2,4-pyrimidinedione]: the melting point was 152 to 154 °C. Further, in the series with HIV (setting [1]), the EC50 stood at 0.0097 µg/mL (≈ 0.0227 µM). In addition, in the series on mock-infected MT-4 cells, the CD50 amounted to 8.70 µg/mL.
